Measurements reported in patent US4882313A, “Carboxamide derivatives of glycopeptides” (SmithKline Beckman Corporation, priority 1987, dated 1989).

Key:
[1] = pI (analytical data, Table 2); type: physicochemical
Description: Using substantially the procedures of both Examples 1 and 2, the compounds of Examples 3-15 were obtained by using the appropriate glycopeptide and amine starting materials.

Streptococcus faecalis = assay: standard microtiter assay, minimum inhibitory concentration; type: cell-based; conditions: for minimum inhibitory concentration of antibiotic, Test Organism 9: Test Organism 9, strain of Streptococcus faecalis; for minimum inhibitory concentration of antibiotic, Test Organism 10: Test Organism 10, strain of Streptococcus faecalis
Description: (§1) Representative results of standard microtiter assays are reported in Table 1 which follows, as the minimum inhibitory concentration of antibiotic (mg/ml). In Table 1, test organisms 1-5 were different strains of Staphylococcus aureus; 6, 8, 11, 13 and 14 were different strains of Staphylococcus epidermidis; 7 was a Staphylococcus haemolyticus; 9 and 10 were different strains of Streptococcus faecalis; and 12 was a Staphylococcus saprophyticus.

Staphylococcus aureus = assay: as above; type: cell-based; conditions: for minimum inhibitory concentration of antibiotic, Test Organism 1: Test Organism 1, strain of Staphylococcus aureus; for minimum inhibitory concentration of antibiotic, Test Organism 2: Test Organism 2, strain of Staphylococcus aureus; for minimum inhibitory concentration of antibiotic, Test Organism 3: Test Organism 3, strain of Staphylococcus aureus; for minimum inhibitory concentration of antibiotic, Test Organism 4: Test Organism 4, strain of Staphylococcus aureus; for minimum inhibitory concentration of antibiotic, Test Organism 5: Test Organism 5, strain of Staphylococcus aureus
Description: as §1

[2] = test system: Staphylococcus saprophyticus; assay: as above; type: cell-based; conditions: Test Organism 12, Staphylococcus saprophyticus
Description: as §1

[3] = test system: Staphylococcus haemolyticus; assay: as above; type: cell-based; conditions: Test Organism 7, Staphylococcus haemolyticus
Description: as §1

[4] = test system: Staphylococcus epidermidis; assay: as above; type: cell-based; set-up: minimum inhibitory concentration of antibiotic, Test Organism 8: unit not given here; conditions: for minimum inhibitory concentration of antibiotic, Test Organism 6: Test Organism 6, strain of Staphylococcus epidermidis; for minimum inhibitory concentration of antibiotic, Test Organism 11: Test Organism 11, strain of Staphylococcus epidermidis; for minimum inhibitory concentration of antibiotic, Test Organism 13: Test Organism 13, strain of Staphylococcus epidermidis; for minimum inhibitory concentration of antibiotic, Test Organism 14: Test Organism 14, strain of Staphylococcus epidermidis; for minimum inhibitory concentration of antibiotic, Test Organism 8: Test Organism 8, strain of Staphylococcus epidermidis
Description: as §1

SMILES	pI [1]	minimum inhibitory concentration of antibiotic, Test Organism 9 (Streptococcus faecalis)	minimum inhibitory concentration of antibiotic, Test Organism 1 (Staphylococcus aureus)	minimum inhibitory concentration of antibiotic, Test Organism 2 (Staphylococcus aureus)	minimum inhibitory concentration of antibiotic, Test Organism 3 (Staphylococcus aureus)	minimum inhibitory concentration of antibiotic, Test Organism 4 (Staphylococcus aureus)	minimum inhibitory concentration of antibiotic, Test Organism 5 (Staphylococcus aureus)	minimum inhibitory concentration of antibiotic, Test Organism 12 [2]	minimum inhibitory concentration of antibiotic, Test Organism 7 [3]	minimum inhibitory concentration of antibiotic, Test Organism 6 [4]	minimum inhibitory concentration of antibiotic, Test Organism 11 [4]	minimum inhibitory concentration of antibiotic, Test Organism 13 [4]	minimum inhibitory concentration of antibiotic, Test Organism 14 [4]	minimum inhibitory concentration of antibiotic, Test Organism 10 (Streptococcus faecalis)	minimum inhibitory concentration of antibiotic, Test Organism 8 [4]
CNC1C(=O)NC2C(=O)NC(C(=O)NC3C(=O)NC4C(=O)NC(C(=O)NC(C(=O)NCCO)c5cc(O)cc(O)c5-c5cc4ccc5O)C(O)c4cc(Cl)c(c(Cl)c4)Oc4cc3cc(c4O)Oc3ccc(cc3Cl)C2O)c2cc(cc(O)c2Cl)Oc2cc1ccc2O (stereo not shown) [Compound 2d, Ardacin aglycone-(2-hydroxyethyl amide)]	7.1	200 µg/mL	50 µg/mL	50 µg/mL	50 µg/mL	200 µg/mL	200 µg/mL	400 µg/mL	800 µg/mL	400 µg/mL	800 µg/mL	200 µg/mL	400 µg/mL		
CNCCNC(=O)C1NC(=O)C2NC(=O)C(NC(=O)C3NC(=O)C4NC(=O)C(NC(=O)C(NC)c5ccc(O)c(c5)Oc5cc(O)c(Cl)c4c5)C(O)c4ccc(c(Cl)c4)Oc4cc3cc(c4O)Oc3c(Cl)cc(cc3Cl)C2O)c2ccc(O)c(c2)-c2c(O)cc(O)cc21 (stereo not shown) [Compound 2f, Ardacin aglycone-(2-Nmethylaminoethyl amide)]	7.7	100 µg/mL	200 µg/mL	200 µg/mL	100 µg/mL	200 µg/mL	100 µg/mL	100 µg/mL	200 µg/mL	200 µg/mL	100 µg/mL	50 µg/mL	100 µg/mL	100 µg/mL	0.1
CNC1C(=O)NC2C(=O)NC(C(=O)NC3C(=O)NC4C(=O)NC(C(=O)NC(C(=O)NCCN(C)C)c5cc(O)cc(O)c5-c5cc4ccc5O)C(O)c4cc(Cl)c(c(Cl)c4)Oc4cc3cc(c4O)Oc3ccc(cc3Cl)C2O)c2cc(cc(O)c2Cl)Oc2cc1ccc2O (stereo not shown) [Compound 2g, Ardacin aglycone-(2-N,Ndimethylaminoethyl amide)]	7.7	100 µg/mL	200 µg/mL	100 µg/mL	200 µg/mL	400 µg/mL	100 µg/mL	100 µg/mL	200 µg/mL	200 µg/mL	200 µg/mL	50 µg/mL	50 µg/mL	200 µg/mL	0.2
CNC1C(=O)NC2C(=O)NC(C(=O)NC3C(=O)NC4C(=O)NC(C(=O)NC(C(=O)NCCCCCCN)c5cc(O)cc(O)c5-c5cc4ccc5O)C(O)c4cc(Cl)c(c(Cl)c4)Oc4cc3cc(c4O)Oc3ccc(cc3Cl)C2O)c2cc(cc(O)c2Cl)Oc2cc1ccc2O (stereo not shown) [Compound 2h, Ardacin aglycone-(6-aminohexyl amide)]	7.7	100 µg/mL	100 µg/mL	100 µg/mL	400 µg/mL	100 µg/mL	100 µg/mL	200 µg/mL	200 µg/mL	100 µg/mL	200 µg/mL	100 µg/mL		100 µg/mL	0.1
CCCCCCCCCC(=O)NC1C(Oc2c3cc4cc2Oc2c(Cl)cc(cc2Cl)C(O)C2NC(=O)C(NC(=O)C4NC(=O)C4NC(=O)C(NC(=O)C(NC)c5ccc(O)c(c5)Oc5cc(O)c(Cl)c4c5)C(O)c4ccc(c(Cl)c4)O3)c3ccc(O)c(c3)-c3c(OC4OC(CO)C(O)C(O)C4O)cc(O)cc3C(C(N)=O)NC2=O)OC(C(N)=O)C(O)C1O (stereo not shown) [Compound 2j, Ardacin A diamide]	7.2	200 µg/mL	800 µg/mL	1600 µg/mL	800 µg/mL	3100 µg/mL	1600 µg/mL	3100 µg/mL	3100 µg/mL	6300 µg/mL	6300 µg/mL	3100 µg/mL	800 µg/mL	100 µg/mL	6.3
CCCCCCCCCC(=O)NC1C(Oc2c3cc4cc2Oc2c(Cl)cc(cc2Cl)C(O)C2NC(=O)C(NC(=O)C4NC(=O)C4NC(=O)C(NC(=O)C(NC)c5ccc(O)c(c5)Oc5cc(O)c(Cl)c4c5)C(O)c4ccc(c(Cl)c4)O3)c3ccc(O)c(c3)-c3c(OC4OC(CO)C(O)C(O)C4O)cc(O)cc3C(C(=O)NN)NC2=O)OC(C(=O)NN)C(O)C1O (stereo not shown) [Compound 2k, Ardacin A dihydrazide]	7.0	400 µg/mL	3100 µg/mL	3100 µg/mL	1600 µg/mL	6300 µg/mL	3100 µg/mL	6300 µg/mL	12500 µg/mL	12500 µg/mL	12500 µg/mL	3100 µg/mL	3100 µg/mL	100 µg/mL	12.5
CCCCCCCCCC(=O)NC1C(Oc2c3cc4cc2Oc2c(Cl)cc(cc2Cl)C(O)C2NC(=O)C(NC(=O)C4NC(=O)C4NC(=O)C(NC(=O)C(NC)c5ccc(O)c(c5)Oc5cc(O)c(Cl)c4c5)C(O)c4ccc(c(Cl)c4)O3)c3ccc(O)c(c3)-c3c(OC4OC(CO)C(O)C(O)C4O)cc(O)cc3C(C(=O)NCCO)NC2=O)OC(C(=O)NCCO)C(O)C1O (stereo not shown) [Compound 2l, Ardacin A-di-(2-hydroxyethyl amide)]	7.3	100 µg/mL	200 µg/mL	200 µg/mL	200 µg/mL	400 µg/mL	400 µg/mL	800 µg/mL	800 µg/mL	1600 µg/mL	800 µg/mL	200 µg/mL		100 µg/mL	0.4
CCCCCCCCCC(=O)NC1C(Oc2c3cc4cc2Oc2c(Cl)cc(cc2Cl)C(O)C2NC(=O)C(NC(=O)C4NC(=O)C4NC(=O)C(NC(=O)C(NC)c5ccc(O)c(c5)Oc5cc(O)c(Cl)c4c5)C(O)c4ccc(c(Cl)c4)O3)c3ccc(O)c(c3)-c3c(OC4OC(CO)C(O)C(O)C4O)cc(O)cc3C(C(=O)NCCN)NC2=O)OC(C(=O)NCCN)C(O)C1O (stereo not shown) [Compound 2m, Ardacin A-di-(2-aminoethylamide)]	8.4	100 µg/mL	100 µg/mL	100 µg/mL	100 µg/mL	800 µg/mL	400 µg/mL	400 µg/mL	800 µg/mL	1600 µg/mL	800 µg/mL	200 µg/mL		100 µg/mL	0.1
